Test results taken from PMC7059793, “Novel Chemical Scaffolds to Inhibit the Neutral Amino Acid Transporter B^0AT1 (SLC6A19), a Potential Target to Treat Metabolic Diseases” (Frontiers in Pharmacology, 2020).

Key:
ASCT2 (SLC1A5) = target: T1, ASCT2 (SLC1A5) (Homo sapiens, UniProt Q15758); assay: Na+-dependent [14C]glutamine uptake in 143B cells; assay type: cell-based; conditions: inhibitor at 10 μM and 50 μM, 100 μM [14C]glutamine
T1 construct: endogenous in cells; host or cells: 143B TK- cells (human osteosarcoma)
T1 sequence (Q15758 1-541): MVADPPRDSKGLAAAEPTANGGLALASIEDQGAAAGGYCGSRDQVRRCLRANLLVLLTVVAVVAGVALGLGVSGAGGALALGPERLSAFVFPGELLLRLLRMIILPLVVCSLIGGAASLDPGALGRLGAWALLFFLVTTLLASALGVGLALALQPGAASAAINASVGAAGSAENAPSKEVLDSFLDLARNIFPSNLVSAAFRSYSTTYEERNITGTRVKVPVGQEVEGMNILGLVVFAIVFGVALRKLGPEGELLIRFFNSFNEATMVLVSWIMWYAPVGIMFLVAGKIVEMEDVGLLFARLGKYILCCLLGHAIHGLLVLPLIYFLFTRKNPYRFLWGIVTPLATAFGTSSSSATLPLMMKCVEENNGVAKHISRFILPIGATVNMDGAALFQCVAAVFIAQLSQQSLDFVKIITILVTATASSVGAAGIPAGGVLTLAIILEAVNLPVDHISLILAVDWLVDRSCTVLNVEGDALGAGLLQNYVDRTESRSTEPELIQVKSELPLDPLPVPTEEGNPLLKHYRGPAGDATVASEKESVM
Procedure: CHO-BC cells with passage numbers from 3 to 10 were used in radio-labelled uptake assays. Before the assay, the cells were seeded out in 35 mm dishes (Corning) and maintained for 48–72 h until reaching 80–90% confluence. To initiate transport, the culture medium was removed and the cells washed three times with HBSS + G. Subsequently, cells were incubated with HBSS + G, radiolabelled substrates (150 μM L-[U-^14C]leucine or 150 μM L-[U-^14C]isoleucine) and inhibitors as indicated in the figures or table in a 37°C water bath for 6 min. To terminate transport, cells were washed three times with ice-cold HBSS pH 7.5. For measuring sodium-independent uptake, NaCl in Hank’s buffer was replaced by NMDG-Cl. Cells were then harvested by homogenizing with 500 µl of 0.1 M HCl. An aliquot of 400 µl was used for scintillation counting and the remainder for protein quantification. To investigate inhibition of ASCT2, uptake of 100 μM [^14C]glutamine was measured in 143B cells in the absence and presence of inhibitor (at 10 μM and 50 μM). To measure inhibition of LAT1, uptake of [^14C]leucine was measured in HBSS + G in which NaCl was replaced by NMDG-Cl in 143B cells in the absence and presence of inhibitor (at 10 μM and 50 μM).
To investigate the specificity of the compounds further, we tested them in human 143B osteosarcoma cells, which we have extensively characterised previously and used for pharmacological analysis ([Broer et al., 2018]). Na^+-dependent glutamine transport in 143B cells is largely mediated by ASCT2 (SLC1A5). Na^+-independent transport of leucine, by contrast, is mediated entirely by LAT1.

B^0AT1 = target: T2, B^0AT1 (Homo sapiens, UniProt Q695T7); assay: Membrane potential detecting FLIPR assay in CHO-BC cells; assay type: cell-based; conditions: 30 min pre-incubation, leucine or isoleucine 1.5 mM
T2 construct: expressed in transfected cells
T2 sequence (Q695T7 1-634): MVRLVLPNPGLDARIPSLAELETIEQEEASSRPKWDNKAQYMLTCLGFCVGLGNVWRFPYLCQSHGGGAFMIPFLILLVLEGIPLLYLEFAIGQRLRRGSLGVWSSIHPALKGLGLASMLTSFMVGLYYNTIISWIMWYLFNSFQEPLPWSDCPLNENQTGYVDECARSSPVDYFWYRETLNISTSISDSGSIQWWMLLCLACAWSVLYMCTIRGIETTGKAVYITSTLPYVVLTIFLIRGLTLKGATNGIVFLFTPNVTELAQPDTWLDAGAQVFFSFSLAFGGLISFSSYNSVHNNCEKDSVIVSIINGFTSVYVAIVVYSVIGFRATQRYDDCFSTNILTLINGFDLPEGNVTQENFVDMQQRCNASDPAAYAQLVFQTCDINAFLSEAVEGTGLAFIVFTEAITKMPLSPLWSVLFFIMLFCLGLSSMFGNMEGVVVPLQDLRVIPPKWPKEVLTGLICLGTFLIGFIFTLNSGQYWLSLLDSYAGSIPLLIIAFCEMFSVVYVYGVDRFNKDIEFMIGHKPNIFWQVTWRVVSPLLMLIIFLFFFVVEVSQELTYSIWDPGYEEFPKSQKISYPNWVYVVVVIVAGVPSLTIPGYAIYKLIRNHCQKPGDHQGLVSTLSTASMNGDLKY
T2 sequence (Q9HBJ8 15-222 partner): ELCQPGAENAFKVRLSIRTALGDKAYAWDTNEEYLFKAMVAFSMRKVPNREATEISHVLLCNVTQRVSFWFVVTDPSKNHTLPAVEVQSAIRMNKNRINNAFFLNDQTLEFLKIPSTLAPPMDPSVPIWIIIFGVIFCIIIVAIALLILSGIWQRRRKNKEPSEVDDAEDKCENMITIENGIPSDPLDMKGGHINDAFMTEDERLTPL
Procedure: CHO-B^0AT1-collectrin Cells (CHO-BC) were generated, cultured, and used as described recently ([Cheng et al., 2017]). Expression levels of B^0AT1 in CHO-BC cells decline over time. As a result, passages <10 were used for experiments. The cells were maintained in Ham’s F-12 glutamax media with 10% (v/v) fetal bovine serum (FBS, Heat inactivated, 10082147 Gibco), 1mM glutamine, 300μg/ml hygromycin B and 275 μg/ml geneticin.
Membrane depolarisation induced by amino acid transport was monitored using a FLIPR® kit (Molecular Devices, R8042 BLUE DYE). Before the assay, CHO-BC cells were seeded out at a density of 60,000 cells/well and maintained in a flat transparent bottom 96-well plate (Corning) overnight. After washing three times with Hank’s balanced salt solution (136.6 mM NaCl, 5.4 mM KCl, 0.44 mM KH2PO4, 2.7mM Na2HPO4, 1.26mM CaCl2, 0.5mM MgCl2, 0.4 mM MgSO4, 10mM HEPES, pH 7.5, supplemented with 5 mM glucose, abbreviated HBSS + G), cells in each well were incubated for 30 min at room temperature in 50 µl of HBSS pH 7.5 containing 5 mM glucose and compounds as indicated, together with 50 µl of dye-loading buffer provided with the kit. Subsequently, the fluorescence signal was detected every 10 s before and after the addition of leucine or isoleucine at a final concentration of 1.5 mM. Fluorescence was detected at room temperature using a PerkinElmer multimode Plate Reader, with an excitation wavelength of 530 nm and emission wavelength of 565 nm.
Data are shown as mean ± S.D., transport activities indicated as Na^+-dependent net uptake, were calculated by subtracting the uptake activity in the absence of Na^+ from the total uptake rate. The fluorescent signals measured in the FLIPR assay were normalized to baseline readings before the addition of substrates. Data are presented as percentage of baseline at each time point. IC50 was calculated using the equation: y=ymax(1−[x]/[x]+IC50) .

| Inhibition of Na+-dependent glutamine uptake (ASCT2) (ASCT2 (SLC1A5)) | IC50 (B^0AT1) | Structure (SMILES) |
| --- | --- | --- |
| failed to inhibit | 4.2 ± 0.9 µM | COc1ccccc1Nc1nc2ccccc2s1 [Compound E18] |
| failed to inhibit | 1.9 ± 0.6 µM | Cc1cc(C(=O)Nc2ccc(Cl)cc2C(F)(F)F)no1 [CB3] |
| failed to inhibit | 13.7 ± 0.9 µM | Cc1cc(OCC(=O)NC(C)C)cc(C)c1Cl [Compound E4] |
